Laboratory results taken from patent US8846698B2, “Pyrrolo[2,3-d]pyrimidine tropomysin-related kinase inhibitors” (Pfizer Limited, priority 2011, dated 2014).

Target: TRKA (Homo sapiens (Human), UniProt P04629)
Assay: Isolated TRK enzyme assay (HTRF KinEASE-TK), TRKA
Assay type: biochemical
Settings: read-out: Trka enzyme (IC50)

Chain of TRKA (P04629 441-796): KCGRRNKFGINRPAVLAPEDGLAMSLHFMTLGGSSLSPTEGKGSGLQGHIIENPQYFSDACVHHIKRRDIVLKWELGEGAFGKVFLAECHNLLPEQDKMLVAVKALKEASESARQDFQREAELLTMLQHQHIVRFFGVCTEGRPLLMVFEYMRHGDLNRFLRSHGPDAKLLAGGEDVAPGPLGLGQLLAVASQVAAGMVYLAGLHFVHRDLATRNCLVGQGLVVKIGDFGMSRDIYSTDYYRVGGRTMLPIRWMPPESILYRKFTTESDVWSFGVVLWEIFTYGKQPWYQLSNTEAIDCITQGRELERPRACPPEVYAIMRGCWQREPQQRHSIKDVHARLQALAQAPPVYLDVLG

Structure (SMILES) | IC50 [nM]
Cn1cc(C(=O)c2cncc(NC(=O)Cc3cccc(C(F)(F)F)c3)c2)c2cncnc21 [Example 194, N-{5-[(7-methyl-7H-pyrrolo[2,3-d]pyrimidin-5-yl)carbonyl]pyridin-3-yl}-2-[3-(trifluoromethyl)phenyl]acetamide] | 101
Cn1cc(C(=O)c2cncc(NC(=O)Cc3ccc(F)c(F)c3)c2)c2cncnc21 [Example 195, 2-(3,4-difluorophenyl)-N-{5-[(7-methyl-7H-pyrrolo[2,3-d]pyrimidin-5-yl)carbonyl]yridine-3-yl}acetamide] | 835
Cn1cc(C(=O)c2cncc(NC(=O)Cc3cccc(Cl)c3)c2)c2cncnc21 [Example 197, 2-(3-chlorophenyl)-N-{5-[(7-methyl-7H-pyrrolo[2,3-d]pyrimidin-5-yl)carbonyl]yridine-3-yl}acetamide] | 430
Cc1nn(C)cc1CC(=O)Nc1cncc(C(=O)c2cn(C(C)(C)C)c3ncncc23)c1 [Example 201, N-{5-[(7-tert-butyl-7H-pyrrolo[2,3-d]pyrimidin-5-yl)carbonyl]pyridin-3-yl}-2-(1,3-dimethyl-1H-pyrazol-4-yl)acetamide] | 482
Cn1cc(CC(=O)Nc2cncc(C(=O)c3cn(C(C)(C)C)c4ncncc34)c2)cn1 [Example 202, N-{5-[(7-tert-butyl-7H-pyrrolo[2,3-d]pyrimidin-5-yl)carbonyl]pyridin-3-yl}-2-(1-methyl-1H-pyrazol-4-yl)acetamide] | 412
Cn1cc(CC(=O)Nc2cncc(C(=O)c3cn(C(C)(C)C)c4ncncc34)c2)c(C2CC2)n1 [Example 203, N-{5-[(7-tert-butyl-7H-pyrrolo[2,3-d]pyrimidin-5-yl)carbonyl]pyridin-3-yl}-2-(3-cyclopropyl-1-methyl-1H-pyrazol-4-yl)acetamide] | 316
C[C@@H](CO)n1cc(C(=O)c2cncc(NC(=O)Cc3cccc(C(F)(F)F)c3)c2)c2cncnc21 [Example 204, N-[5-({7-[(1S)-2-hydroxy-1-methylethyl]-7H-pyrrolo[2,3-d]pyrimidin-5-yl}carbonyl)pyridin-3-yl]-2-[3-(trifluoromethyl)phenyl]acetamide] | 4.24
CC(C)c1cn(CC(=O)Nc2cncc(C(=O)c3cn([C@H](C)CO)c4ncncc34)c2)nn1 [Example 206, N-[5-({7-[(1R)-2-hydroxy-1-methylethyl]-7H-pyrrolo[2,3-d]pyrimidin-5-yl}carbonyl)pyridin-3-yl]-2-(4-isopropyl-1H-1,2,3-triazol-1-yl)acetamide] | 123
CC(C)n1ncc(CC(=O)Nc2cncc(C(=O)c3cn([C@H](C)CO)c4ncncc34)c2)c1C(F)(F)F [Example 207, N-[5-({7-[(1R)-2-hydroxy-1-methylethyl]-7H-pyrrolo[2,3-d]pyrimidin-5-yl}carbonyl)pyridin-3-yl]-2-[1-isopropyl-5-(trifluoromethyl)-1H-pyrazol-4-yl]acetamide] | 110
C[C@H](CO)n1cc(C(=O)c2cncc(NC(=O)Cc3ccc(C#N)cc3)c2)c2cncnc21 [Example 208, 2-(4-cyanophenyl)-N-[5-({7-[(1R)-2-hydroxy-1-methylethyl]-7H-pyrrolo[2,3-d]pyrimidin-5-yl}carbonyl)pyridin-3-yl]acetamide] | 129
C[C@H](CO)n1cc(C(=O)c2cncc(NC(=O)Cc3ccc4cccnc4c3)c2)c2cncnc21 [Example 210, N-[5-({7-[(1R)-2-hydroxy-1-methylethyl]-7H-pyrrolo[2,3-d]pyrimidin-5-yl}carbonyl)pyridin-3-yl]-2-quinolin-7-ylacetamide] | 185
O=C(Cc1ccc(Cl)c(Cl)c1)Nc1cncc(C(=O)c2cn(C3COC3)c3ncncc23)c1 [Example 217, 2-(3,4-dichlorophenyl)-N-{5-[(7-oxetan-3-yl-7H-pyrrolo[2,3-d]pyrimidin-5-yl)carbonyl]pyridin-3-yl}acetamide] | 83.3
N#Cc1ccc(CC(=O)Nc2cncc(C(=O)c3cn(C4COC4)c4ncncc34)c2)cc1 [Example 218, 2-(4-cyanophenyl)-N-{5-[(7-oxetan-3-yl-7H-pyrrolo[2,3-d]pyrimidin-5-yl)carbonyl]pyridin-3-yl}acetamide] | 1210
O=C(Cc1ccc(Cl)cc1)Nc1cncc(C(=O)c2cn(C3COC3)c3ncncc23)c1 [Example 219, 2-(4-chlorophenyl)-N-{5-[(7-oxetan-3-yl-7H-pyrrolo[2,3-d]pyrimidin-5-yl)carbonyl]pyridin-3-yl}acetamide] | 286
O=C(Cc1cccc(Cl)c1)Nc1cncc(C(=O)c2cn(C3COC3)c3ncncc23)c1 [Example 220, 2-(3-chlorophenyl)-N-{5-[(7-oxetan-3-yl-7H-pyrrolo[2,3-d]pyrimidin-5-yl)carbonyl]pyridin-3-yl}acetamide] | 462
N#Cc1cccc(CC(=O)Nc2cncc(C(=O)c3cn(C4COC4)c4ncncc34)c2)c1 [Example 221, 2-(3-cyanophenyl)-N-{5-[(7-oxetan-3-yl-7H-pyrrolo[2,3-d]pyrimidin-5-yl)carbonyl]pyridin-3-yl}acetamide] | 3100
CC(C)(CO)n1cc(C(=O)c2cncc(NC(=O)Cc3ccc(C#N)cc3)c2)c2cncnc21 [Example 225, 2-(4-cyanophenyl)-N-(5-{[7-(2-hydroxy-1,1-dimethylethyl)-7H-pyrrolo[2,3-d]pyrimidin-5-yl]carbonyl}pyridin-3-yl)acetamide] | 27.7
CC(CO)(CO)n1cc(C(=O)c2cncc(NC(=O)Cc3ccc(C#N)cc3)c2)c2cncnc21 [Example 232, 2-(4-Cyanophenyl)-N-[5-({7-[2-hydroxy-1-(hydroxymethyl)-1-methylethyl]-7H-pyrrolo[2,3-d]pyrimidin-5-yl}carbonyl)pyridin-3-yl]acetamide] | 274
CC(CO)(CO)n1cc(C(=O)c2cncc(NC(=O)Cc3ccc4cccnc4c3)c2)c2cncnc21 [Example 233, N-[5-({7-[2-hydroxy-1-(hydroxymethyl)-1-methylethyl]-7H-pyrrolo[2,3-d]pyrimidin-5-yl}carbonyl)pyridin-3-yl]-2-quinolin-7-ylacetamide] | 96.5
Cc1cc(C(F)(F)F)nn1CC(=O)Nc1cncc(C(=O)c2cn(C(C)(CO)CO)c3ncncc23)c1 [Example 234, N-[5-({7-[2-hydroxy-1-(hydroxymethyl)-1-methylethyl]-7H-pyrrolo[2,3-d]pyrimidin-5-yl}carbonyl)pyridin-3-yl]-2-[5-methyl-3-(trifluoromethyl)-1H-pyrazol-1-yl]acetamide] | 84.9

More lines, in order of falling IC50, values ahead:

IC50 [nM] | Structure (SMILES)
3100 | O=C(CN1Cc2ccccc2C1=O)Nc1cncc(C(=O)c2cn(C3COC3)c3ncncc23)c1 [Example 224, N-{5-[(7-oxetan-3-yl-7H-pyrrolo[2,3-d]pyrimidin-5-yl)carbonyl]pyridin-3-yl}-2-(1-oxo-1,3-dihydro-2H-isoindol-2-yl)acetamide]
2350 | Cn1cc(C(=O)c2cncc(NC(=O)CCc3ccccc3Cl)c2)c2cncnc21 [Example 198, 3-(2-chlorophenyl)-N-{5-[(7-methyl-7H-pyrrolo[2,3-d]pyrimidin-5-yl)carbonyl]pyridin-3-yl}propanamide]
1660 | O=C(Cc1cn2cc(Cl)ccc2n1)Nc1cncc(C(=O)c2cn(C3COC3)c3ncncc23)c1 [Example 223, 2-(6-chloroimidazo[1,2-a]pyridin-2-yl)-N-{5-[(7-oxetan-3-yl-7H-pyrrolo[2,3-d]pyrimidin-5-yl)carbonyl]pyridin-3-yl}acetamide]
791 | Cn1cc(C(=O)c2cncc(NC(=O)Cc3ccc(OC(F)(F)F)cc3)c2)c2cncnc21 [Example 196, N-{5-[(7-methyl-7H-pyrrolo[2,3-d]pyrimidin-5-yl)carbonyl]yridine-3-yl}-2-[4-(trifluoromethoxy)phenyl]acetamide]
692 | O=C(Cc1ccc2cccnc2c1)Nc1cncc(C(=O)c2cn(C3COC3)c3ncncc23)c1 [Example 222, N-{5-[(7-oxetan-3-yl-7H-pyrrolo[2,3-d]pyrimidin-5-yl)carbonyl]pyridin-3-yl}-2-quinolin-7-ylacetamide]
272 | C[C@H](CO)n1cc(C(=O)c2cncc(NC(=O)Cc3cccc(S(C)(=O)=O)c3)c2)c2cncnc21 [Example 209, N-[5-({7-[(1R)-2-hydroxy-1-methylethyl]-7H-pyrrolo[2,3-d]pyrimidin-5-yl}carbonyl)pyridin-3-yl]-2-[3-(methylsulfonyl)phenyl]acetamide]
22.1 | CC(C)(C)n1cc(C(=O)c2cncc(NC(=O)Cc3coc(C4CC4)n3)c2)c2cncnc21 [Example 199, N-{5-[(7-tert-butyl-7H-pyrrolo[2,3-d]pyrimidin-5-yl)carbonyl]pyridin-3-yl}-2-(2-cyclopropyl-1,3-oxazol-4-yl)acetamide]
14.9 | CC(C)(CO)n1cc(C(=O)c2cncc(NC(=O)Cc3ccc4cccnc4c3)c2)c2cncnc21 [Example 228, N-(5-{[7-(2-hydroxy-1,1-dimethylethyl)-7H-pyrrolo[2,3-d]pyrimidin-5-yl]carbonyl}pyridin-3-yl)-2-quinolin-7-ylacetamide]
12.5 | CC(C)c1cn(CC(=O)Nc2cncc(C(=O)c3cn(C(C)(C)CO)c4ncncc34)c2)nn1 [Example 227, N-(5-{[7-(2-hydroxy-1,1-dimethylethyl)-7H-pyrrolo[2,3-d]pyrimidin-5-yl]carbonyl}pyridin-3-yl)-2-(4-isopropyl-1H-1,2,3-triazol-1-yl)acetamide]
12.2 | C[C@H](CO)n1cc(C(=O)c2cncc(NC(=O)Cc3cccc(C(F)(F)F)c3)c2)c2cncnc21 [Example 205, N-[5-({7-[(1R)-2-hydroxy-1-methylethyl]-7H-pyrrolo[2,3-d]pyrimidin-5-yl}carbonyl)pyridin-3-yl]-2-[3-(trifluoromethyl)phenyl]acetamide]
10.1 | CC(C)(C)n1cc(C(=O)c2cncc(NC(=O)Cc3cccc(S(C)(=O)=O)c3)c2)c2cncnc21 [Example 200, N-{5-[(7-tert-butyl-7H-pyrrolo[2,3-d]pyrimidin-5-yl)carbonyl]pyridin-3-yl}-2-[3-(methylsulfonyl)phenyl]acetamide]
3.61 | CC(C)(CO)n1cc(C(=O)c2cncc(NC(=O)Cc3cccc(C(F)(F)F)c3)c2)c2cncnc21 [Example 226, N-(5-{[7-(2-hydroxy-1,1-dimethylethyl)-7H-pyrrolo[2,3-d]pyrimidin-5-yl]carbonyl}pyridin-3-yl)-2-[3-(trifluoromethyl)phenyl]acetamide]
